Results published in article PMC7211193, “Evaluation of absorption, distribution, metabolism, and excretion of [^14C]-rucaparib, a poly(ADP-ribose) polymerase inhibitor, in patients with advanced solid tumors” (Investigational New Drugs, 2019).

Experiment: Metabolite profiling in plasma (LC-MS-TopCount)
Assay type: in vivo, human
Method: Plasma samples from six patients were pooled using two methods: (1) A Hamilton pool plasma (0–24 h) for metabolite profile determination was prepared by combining plasma aliquots of a volume proportional to the time interval used for calculating the AUC (AUC0-24h pool) for each patient and (2) four time-point pooling samples were obtained by equal volume pool at 1, 4, 8, and 24 h across six patients. In addition, plasma samples at 1, 8, and 24 h were selected from three patients (Patients 03, 08, and 09) for metabolite profiles analysis to check the individual differences between patients. Samples collected after 24 h post dose were not included in the pooling due to the low radioactivity at later time points. All plasma samples (pooled and from individuals) were extracted at least two times with acetonitrile. All supernatants were evaporated to dryness, and the dried residues were reconstituted in 20% acetonitrile in water containing 0.1% TFA. The sample recovery was obtained by comparing the radioactivity concentrations before and after extraction, and the mean recovery was about 70%.
Aliquots of the supernatants were injected into the HPLC, and the HPLC elutes were collected as fractions at intervals of 30 sec per well into LumaPlate-96 DeepWell microplates (PerkinElmer). Due to the low radioactivity in each plasma sample, metabolite profiles were obtained by TopCount (PerkinElmer) analysis of HPLC elutes. The fractions were dried at room temperature, and then analyzed by a TopCount NXT radiometric microplate reader (PerkinElmer) to obtain metabolite profiles. The supernatants of extracts were also analyzed using an LC-MS method to identify metabolites.
Metabolite profiling and identification were performed on an LC system (Agilent) coupled to an LTQ Orbitrap mass spectrometer (Thermo Electron, Waltham, MA, USA) in combination with offline TopCount (LC-MS-TopCount) or online Radiomatic 625TR (LC-MS-Radiomatic; PerkinElmer). Proposed structures of the metabolites were based on accurate mass (<5 ppm) and comparison of mass spectral data of parent compound rucaparib and metabolite standard M324. The Radiomatic 625TR flow detector, equipped with a 200 μL flow cell, was operated using scintillation cocktail (Ultima-Flo M) delivered at a flow rate of 1 mL/min. Chromatography was done using a Phenomenex (Torrance, CA, USA) Luna Phenyl-Hexyl column (250 × 2 mm, 5 μm, 100 Å) at ambient temperature during the sample analysis. The mobile phase was (A) 0.05% TFA in water and (B) 0.05% TFA in acetonitrile, with a 0.2 mL/min flow rate. The gradient was as follows: 5% B over 2.1 min, to 20% B in 1.0 min, to 35% B in 16.9 min, isocratic at 35% B for 5 min, to 95% B over 5 min, and reduced to 5% B over 1 min, with total run time 45 min.
The abundance of unchanged rucaparib and metabolites identified in plasma, urine, and feces was determined as a percentage of the TRA in the analyzed samples. Percentage of the administered dose of rucaparib and metabolites was calculated in urine and feces (formula A). The concentration of rucaparib and its metabolites in plasma (ng Eq h/mL) was calculated based on the specific activity, TRA, and percentage of peaks (formula B). The AUC0-24h value of rucaparib and its major metabolite M324 in plasma was calculated using both Hamilton method (formula C) and linear trapezoidal method (formula D). • (A) %Doseofmetabolite=TRAinurineorfeces(dpm)÷TRAinadministereddose(dpm)×%metabolitesinmatrix • (B) Metaboliteconcentrationsinplasma(ngEq/mL)=TRAinplasma(dpm/mL)specificactivity(ngEq/dpm)×%metabolitesinthematrix • (C) Hamiltonmethod:AUC0−24h(ngEqh/mL)=concentrationinHamilton(AUC0−24h)pooledplasma(ngEq/mL)×24(h) • (D) Lineartrapezoidalmethod:AUC0−24h(ngEqh/mL)=C1h/2×1h+C1h+C4h/2×(4h−1h)+C4h+C8h/2×(8h−4h)+C8h+C24h/2×(24h−8h)

[1] = 0-24 h pooled plasma, N = 6, mean ± SD

CNCc1ccc(-c2[nH]c3cc(F)cc4c3c2CCNC4=O)cc1 [Rucaparib, rucaparib]
% Peak (of plasma radioactivity), Hamilton (AUC0-24h) pooled plasma [1]: 64.0 ± 13.7% | Concentration, Hamilton (AUC0-24h) pooled plasma [1]: 335 ± 120 ng Eq/mL | % Peak (of plasma radioactivity), Hamilton (AUC0-24h) pooled plasma (0-24 h pooled plasma, N = 6, mean ± SD, listed as rucaparib): 64.0% and ≈ 64% | % Radioactive peaks in individual plasma, Patient 03, 1 h (Patient 03, 1 h): 75.0% | % Radioactive peaks in individual plasma, Patient 03, 8 h (Patient 03, 8 h): 66.7% | % Radioactive peaks in individual plasma, Patient 03, 24 h (Patient 03, 24 h): 36.1% | % Radioactive peaks in individual plasma, Patient 08, 1 h (Patient 08, 1 h): 92.1% | % Radioactive peaks in individual plasma, Patient 08, 8 h (Patient 08, 8 h): 68.2% | % Radioactive peaks in individual plasma, Patient 08, 24 h (Patient 08, 24 h): 38.5% | % Radioactive peaks in individual plasma, Patient 09, 1 h (Patient 09, 1 h): 84.6% | % Radioactive peaks in individual plasma, Patient 09, 8 h (Patient 09, 8 h): 82.1% | % Radioactive peaks in individual plasma, Patient 09, 24 h (Patient 09, 24 h): 56.5% | % Radioactive peaks in individual plasma, Mean ± SD, 1 h (Patients 03, 08, 09, 1 h): 83.9 ± 8.57% | % Radioactive peaks in individual plasma, Mean ± SD, 8 h (Patients 03, 08, 09, 8 h): 72.3 ± 8.49% | % Radioactive peaks in individual plasma, Mean ± SD, 24 h (Patients 03, 08, 09, 24 h): 43.7 ± 11.1% | AUC0-24h, Hamilton (AUC0-24h) pooled plasma (concentration in 0-24-h pooled sample × 24 h): 8040 ng Eq h/mL | concentration at 1 h (human, plasma, oral, 600 mg, single pooled sample from all six patients, 1 h, read-out: Mean concentration, time point pooled plasma, 1 h): 317 ng/mL | concentration at 4 h (human, plasma, oral, 600 mg, single pooled sample from all six patients, 4 h, read-out: Mean concentration, time point pooled plasma, 4 h): 590 ng/mL | concentration at 8 h (human, plasma, oral, 600 mg, single pooled sample from all six patients, 8 h, read-out: Mean concentration, time point pooled plasma, 8 h): 545 ng/mL | concentration at 24 h (human, plasma, oral, 600 mg, single pooled sample from all six patients, 24 h, read-out: Mean concentration, time point pooled plasma, 24 h): 151 ng/mL | Mean AUC0-24h, time point pooled plasma (trapezoidal method from 1, 4, 8, 24 h pools): 9360 ng Eq h/mL
